Tests used:
Type in all cases: cell-based
[1] = tested on: KM20L2; test: NCI in vitro mini panel, human cancer cell line growth inhibition; conditions: Colon KM20L2, 48 hrs
Experimental: (§1) ED50 (P388) and GI50 (HTCL) identify the drug dose which reduces the percent tumor/cell growth to 50%. There is no mathematical difference between ED50 and GI50, both of which are calculated using the same formula. The only difference is historical usage.
(§2) TGI, means "Total Growth Inhibition", and identifies the drug dose needed to yield zero percent growth, i.e. there are just as many cells at the end of the experiment as were present at the beginning. Whether just as many cells were killed as were produced (steady state), or no growth occurred (total inhibition) cannot be distinguished.
(§3) LC50, means "Lethal Concentration 50%", and identifies the drug concentration which reduces to one-half of the cells originally present at the beginning of the experiment.
(§4) Each drug is tested at five (5) doses: 100--10-1-0.1--0.01 μg/mL. Percent Growths are calculated for each dose. The two (or three) doses with growth values above, below, (or near to) 50% growth are used to calculate the ED50 /GI50 values using a linear regression computation. If no dose yields a growth value under 50%, the results are expressed as: ED50 >(highest dose). If no dose yields growth higher than 50% growth, then ED50 <(lowest dose). Similar calculations are performed for the TGI at 0% growth, and at -50% growth for the LC50.
(§5) At the start of each experiment, cells from the in vitro cell cultures are inoculated into the appropriate tubes or microtiter plates. One set of control tubes/plates is immediately counted to determine the number of cells at the start of the experiment. This is the "baseline count", or "Tzero reading". At the end of the experiment (48 hrs later), a second set of control tubes/plates is analyzed to determine the "Control Growth" value. The growth (or death) of cells relative to the initial quantity of cells is used to define the "Percent of Growth."
(§6) Similarly, the compounds disclosed herein have also been tested against an NCI in vitro mini panel. For each of six cell lines GI50, TGI, and LC50 amounts were calculated for each compound. Each compound was also tested against the PS-388 cell line and for this test an ED50 was calculated.
(§7) The protocols followed, for the NCI minipanel are, except for the number of cell lines, those established by M. R. Boyd Ph.D., and well known to those of ordinary skill in the art. The procedure followed for the test against PS-388 Leukemia is the same that was followed in the superseded NCI P-388 screening test, which is also well known to those having ordinary skill in the art.

[2] = tested on: OVCAR-3; test: as above; conditions: Ovarian OVCAR-3, 48 hrs
Experimental: as §1, §2, §3, §4, §5, §6, §7

[3] = tested on: NCI-H460; test: as above; conditions: Lung-NSC NCI-H460, 48 hrs
Experimental: as §1, §2, §3, §4, §5, §6, §7

[4] = tested on: SF-295; test: as above; conditions: CNS SF-295, 48 hrs
Experimental: as §1, §2, §3, §4, §5, §6, §7

[5] = tested on: SK-MEL-5; test: as above; conditions: Melanoma SK-MEL-5, 48 hrs
Experimental: as §1, §2, §3, §4, §5, §6, §7

[6] = tested on: A498; test: as above; conditions: Renal A498, 48 hrs
Experimental: as §1, §2, §3, §4, §5, §6, §7

[7] = tested on: PS-388; test: PS-388 mouse leukemia cell line test; conditions: Mouse Leukemia PS-388
Experimental: as §1, §4, §5, §6, §7

Substance | GI-50 [1] [µg/mL] | LC-50 [1] [µg/mL] | TGI [1] [µg/mL] | GI-50 [2] [µg/mL] | LC-50 [2] [µg/mL] | TGI [2] [µg/mL] | GI-50 [3] [µg/mL] | LC-50 [3] [µg/mL] | TGI [3] [µg/mL] | GI-50 [4] [µg/mL] | LC-50 [4] [µg/mL] | TGI [4] [µg/mL] | GI-50 [5] [µg/mL] | LC-50 [5] [µg/mL] | TGI [5] [µg/mL] | GI-50 [6] [µg/mL] | LC-50 [6] [µg/mL] | TGI [6] [µg/mL] | ED-50 [7] [µg/mL]
L-Dolavalyl-L-Leucyl-N-methyl-(3R,4S,5S)-Dolaisoleuinyl-(2R,3R,4S)-Dolaproinyl-Dolaphenine [10a] | 0.000034 | > 0.01 | 0.001 | 0.000031 | > 0.01 | 0.00051 | 0.00022 | > 0.01 | 0.0007 | 0.00027 | > 0.01 | > 0.01 | 0.000058 | > 0.01 | > 0.01 | 0.00026 | > 0.01 | 0.0063 | 0.0000312
L-Dolavalyl-L-Leucyl-N-methyl-(3R,4S,5S)-Dolaisoleuinyl-(2R,3R,4S)-Dolaproinyl-L-Methionine N-2-benzothiazolamide [8e] | 0.00034 | > 0.01 | > 0.01 | 0.00008 | > 0.01 | 0.0029 | 0.0032 | > 0.01 | > 0.01 | 0.0036 | > 0.01 | > 0.01 | 0.000051 | > 0.01 | > 0.01 | 0.00087 | > 0.01 | > 0.01 | 0.000839
L-Dolavalyl-L-Leucyl-N-methyl-(3R,4S,5S)-Dolaisoleuinyl-(2R,3R,4S)-Dolaproinyl-L-Methionine N-2-chlorophenylamide [8a] | 0.0018 | > 0.01 | > 0.01 | 0.00047 | > 0.01 | 0.005 | 0.0028 | > 0.01 | 0.0079 | 0.0034 | > 0.01 | > 0.01 | 0.042 | > 0.01 | > 0.01 | 0.0037 | > 0.01 | > 0.01 | 0.00256
L-Dolavalyl-L-Leucyl-N-methyl-(3R,4S,5S)-Dolaisoleuinyl-(2R,3R,4S)-Dolaproinyl-L-Methionine N-3-quinolinamide [8g] | 0.000019 | > 0.01 | 0.0012 | < 0.000006 | > 0.01 | 0.001 | 0.00032 | > 0.01 | 0.0012 | 0.00041 | > 0.01 | > 0.01 | < 0.000006 | > 0.01 | > 0.01 | 0.00026 | > 0.01 | > 0.01 | 0.000271
L-Dolavalyl-L-Leucyl-N-methyl-(3R,4S,5S)-Dolaisoleuinyl-(2R,3R,4S)-Dolaproinyl-L-Methionine N-4-chlorophenylamide [8b] | 0.00028 | > 0.01 | > 0.01 | 0.000031 | > 0.01 | 0.0016 | 0.003 | > 0.01 | 0.009 | 0.0029 | > 0.01 | > 0.01 | 0.000018 | > 0.01 | > 0.01 | 0.00045 | > 0.01 | > 0.01 | 0.000434
L-Dolavalyl-L-Leucyl-N-methyl-(3R,4S,5S)-Dolaisoleuinyl-(2R,3R,4S)-Dolaproinyl-L-Phenylalanine N-3-chlorophenylamide [8c] | 0.00021 | > 0.01 | 0.0012 | 0.000064 | > 0.01 | 0.0011 | 0.0017 | > 0.01 | 0.0054 | 0.00088 | > 0.01 | > 0.01 | 0.000042 | > 0.01 | 0.00074 | 0.00042 | > 0.01 | > 0.01 | 0.0000371
L-Dolavalyl-L-Leucyl-N-methyl-(3R,4S,5S)-Dolaisoleuinyl-(2R,3R,4S)-Dolaproinyl-L-Phenylalanine N-4-chlorophenylamide [8d] | 0.000015 | > 0.01 | 0.0012 | 0.0000085 | > 0.01 | 0.00023 | 0.00032 | > 0.01 | 0.0011 | 0.00034 | > 0.01 | > 0.01 | 0.0000051 | > 0.01 | > 0.01 | 0.00018 | > 0.01 | 0.0038 | 0.0000025
L-Dolavalyl-L-Leucyl-N-methyl-(3R,4S,5S)-Dolaisoleuinyl-(2R,3R,4S)-Dolaproinyl-L-Proline N-2-benzothiazolamide [8f] | 0.0074 | > 0.01 | > 0.01 | 0.0033 | > 0.01 | > 0.01 | > 0.01 | > 0.01 | > 0.01 | > 0.01 | > 0.01 | > 0.01 | 0.0043 | > 0.01 | > 0.01 | > 0.01 | > 0.01 | > 0.01 | 0.00405
L-Dolavalyl-L-Leucyl-N-methyl-(3R,4S,5S)-Dolaisoleuinyl-(2R,3R,4S)-Dolaproinyl-N-2(2-chlorophenyl) ethylamide [10b] | 0.00031 | > 0.01 | 0.0013 | 0.00031 | > 0.01 | 0.0012 | 0.00033 | > 0.01 | 0.0014 | 0.00042 | > 0.01 | > 0.01 | 0.00043 | > 0.01 | > 0.01 | 0.00069 | > 0.01 | > 0.01 | 0.000357

— patent US5530097A, “Human cancer inhibitory peptide amides” (Arizona Board of Regents acting on behalf of Arizona State …, priority 1994, dated 1996)
